From the kinase profiling compilation of Christmann-Franck et al. (2016)

Key:
Conditions in all cases: compound 10.0 µM
PTK2B (human) = PTK2B (human) (UniProt Q14289)
MAPK3 (human) = MAPK3 (human) (UniProt P27361)
DYRK1B (human) = DYRK1B (human) (UniProt Q9Y463)
RPS6KB1 (human) = RPS6KB1 (human) (UniProt P23443)
VRK2 (human) = VRK2 (human) (UniProt Q86Y07)
[1] = system: RET (human), P07949 [V804L]
CSNK1D (human) = CSNK1D (human) (UniProt P48730)
BMP2K (human) = BMP2K (human) (UniProt Q9NSY1)
SRPK2 (human) = SRPK2 (human) (UniProt P78362)
[2] = system: MET (human), P08581 [Y1235D]
CDKL1 (human) = CDKL1 (human) (UniProt Q00532)
PIP4K2B (human) = PIP4K2B (human) (UniProt P78356)
PIP4K2B (human), sequence (P78356 whole entry, looked up): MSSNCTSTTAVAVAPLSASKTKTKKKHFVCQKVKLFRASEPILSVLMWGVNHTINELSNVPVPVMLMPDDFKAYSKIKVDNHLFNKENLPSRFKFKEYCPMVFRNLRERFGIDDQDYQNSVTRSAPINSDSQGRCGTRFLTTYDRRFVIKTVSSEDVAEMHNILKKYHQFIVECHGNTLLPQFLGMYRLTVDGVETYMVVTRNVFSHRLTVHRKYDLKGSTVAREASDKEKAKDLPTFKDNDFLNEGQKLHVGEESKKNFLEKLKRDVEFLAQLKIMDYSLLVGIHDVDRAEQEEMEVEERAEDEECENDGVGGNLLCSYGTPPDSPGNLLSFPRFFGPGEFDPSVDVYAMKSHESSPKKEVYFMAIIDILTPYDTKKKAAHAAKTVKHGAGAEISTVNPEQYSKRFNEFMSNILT

TRPM6 (human) = TRPM6 (human) (UniProt Q9BX84)
TRPM6 (human), sequence (Q9BX84 whole entry, looked up): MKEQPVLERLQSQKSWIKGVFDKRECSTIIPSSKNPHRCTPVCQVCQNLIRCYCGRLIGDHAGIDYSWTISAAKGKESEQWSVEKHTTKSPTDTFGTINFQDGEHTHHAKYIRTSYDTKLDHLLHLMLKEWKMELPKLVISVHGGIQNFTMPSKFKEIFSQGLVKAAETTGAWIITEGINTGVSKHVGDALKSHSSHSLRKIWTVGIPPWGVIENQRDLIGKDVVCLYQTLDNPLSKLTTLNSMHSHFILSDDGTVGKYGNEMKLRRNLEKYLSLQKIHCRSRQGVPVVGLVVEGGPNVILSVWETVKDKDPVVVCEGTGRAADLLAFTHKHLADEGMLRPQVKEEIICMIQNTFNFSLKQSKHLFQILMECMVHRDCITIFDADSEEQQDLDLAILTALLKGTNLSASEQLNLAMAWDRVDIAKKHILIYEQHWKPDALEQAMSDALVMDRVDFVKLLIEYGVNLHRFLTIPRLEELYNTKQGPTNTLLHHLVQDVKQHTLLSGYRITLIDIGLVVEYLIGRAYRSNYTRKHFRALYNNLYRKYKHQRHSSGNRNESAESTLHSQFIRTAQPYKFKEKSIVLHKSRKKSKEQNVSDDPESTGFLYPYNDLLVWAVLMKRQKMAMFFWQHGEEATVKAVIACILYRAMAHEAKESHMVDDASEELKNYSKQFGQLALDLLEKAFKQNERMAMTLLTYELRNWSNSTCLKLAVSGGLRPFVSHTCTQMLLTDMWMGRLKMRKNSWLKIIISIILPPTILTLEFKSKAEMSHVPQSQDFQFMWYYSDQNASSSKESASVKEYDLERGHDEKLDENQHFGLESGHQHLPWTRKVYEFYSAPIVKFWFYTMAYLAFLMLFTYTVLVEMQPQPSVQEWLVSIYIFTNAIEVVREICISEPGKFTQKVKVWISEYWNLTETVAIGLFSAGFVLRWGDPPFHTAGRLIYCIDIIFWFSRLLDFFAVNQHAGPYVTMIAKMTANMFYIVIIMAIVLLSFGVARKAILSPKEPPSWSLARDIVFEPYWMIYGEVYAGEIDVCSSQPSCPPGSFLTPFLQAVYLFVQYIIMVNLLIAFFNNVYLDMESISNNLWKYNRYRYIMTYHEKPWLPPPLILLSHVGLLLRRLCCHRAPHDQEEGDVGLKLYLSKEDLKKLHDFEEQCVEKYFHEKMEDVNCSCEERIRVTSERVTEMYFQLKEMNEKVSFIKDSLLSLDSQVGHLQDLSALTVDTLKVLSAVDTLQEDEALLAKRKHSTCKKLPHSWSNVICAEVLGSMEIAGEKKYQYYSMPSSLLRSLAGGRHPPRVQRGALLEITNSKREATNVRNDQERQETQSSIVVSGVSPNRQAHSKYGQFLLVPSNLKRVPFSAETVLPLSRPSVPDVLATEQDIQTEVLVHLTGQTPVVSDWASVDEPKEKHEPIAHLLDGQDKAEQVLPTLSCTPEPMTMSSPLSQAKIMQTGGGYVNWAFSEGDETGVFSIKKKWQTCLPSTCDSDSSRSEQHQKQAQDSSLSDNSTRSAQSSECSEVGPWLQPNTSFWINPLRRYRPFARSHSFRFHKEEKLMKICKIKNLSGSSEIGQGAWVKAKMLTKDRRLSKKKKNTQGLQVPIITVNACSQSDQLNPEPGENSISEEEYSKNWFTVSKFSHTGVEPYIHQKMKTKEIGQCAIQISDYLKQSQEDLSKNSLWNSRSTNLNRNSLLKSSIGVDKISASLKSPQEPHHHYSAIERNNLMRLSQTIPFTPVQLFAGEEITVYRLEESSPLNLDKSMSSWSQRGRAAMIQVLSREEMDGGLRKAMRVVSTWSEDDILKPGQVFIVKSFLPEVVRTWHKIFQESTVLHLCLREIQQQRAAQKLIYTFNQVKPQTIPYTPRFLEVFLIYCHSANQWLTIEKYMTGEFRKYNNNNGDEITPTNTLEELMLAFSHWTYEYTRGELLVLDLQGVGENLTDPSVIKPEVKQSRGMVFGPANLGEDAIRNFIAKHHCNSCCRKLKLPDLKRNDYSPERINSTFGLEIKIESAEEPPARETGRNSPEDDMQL

STK10 (human) = STK10 (human) (UniProt O94804)
[3] = system: MET (human), P08581 [M1250T]
FES (human) = FES (human) (UniProt P07332)
RPS6KA3 KD1 (human) = RPS6KA3 KD1 (human) (UniProt P51812)
MARK4 (human) = MARK4 (human) (UniProt Q96L34)
EPHA1 (human) = EPHA1 (human) (UniProt P21709)
AAK1 (human) = AAK1 (human) (UniProt Q2M2I8)
CPK1 (P.falciparum) = system: CPK1 (P.falciparum)
SYK (human) = SYK (human) (UniProt P43405)
PRKX (human) = PRKX (human) (UniProt P51817)
PRKX (human), sequence (P51817 whole entry, looked up): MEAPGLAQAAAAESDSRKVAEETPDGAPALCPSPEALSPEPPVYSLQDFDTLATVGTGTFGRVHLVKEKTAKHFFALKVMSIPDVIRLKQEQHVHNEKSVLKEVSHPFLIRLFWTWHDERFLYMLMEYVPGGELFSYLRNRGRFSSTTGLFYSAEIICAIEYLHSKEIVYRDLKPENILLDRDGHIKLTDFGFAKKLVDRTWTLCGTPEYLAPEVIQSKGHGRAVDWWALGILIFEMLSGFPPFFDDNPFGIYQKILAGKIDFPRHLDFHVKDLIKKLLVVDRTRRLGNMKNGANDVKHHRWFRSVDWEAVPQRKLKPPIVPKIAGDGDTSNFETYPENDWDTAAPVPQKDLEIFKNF

EIF2AK1 (human) = EIF2AK1 (human) (UniProt Q9BQI3)
MAPKAPK5 (human) = MAPKAPK5 (human) (UniProt Q8IW41)
MAP3K5 (human) = MAP3K5 (human) (UniProt Q99683)
HUNK (human) = HUNK (human) (UniProt P57058)
ITK (human) = ITK (human) (UniProt Q08881)
AXL (human) = AXL (human) (UniProt P30530)
PRKG2 (human) = PRKG2 (human) (UniProt Q13237)
NEK7 (human) = NEK7 (human) (UniProt Q8TDX7)
NEK7 (human), sequence (Q8TDX7 whole entry, looked up): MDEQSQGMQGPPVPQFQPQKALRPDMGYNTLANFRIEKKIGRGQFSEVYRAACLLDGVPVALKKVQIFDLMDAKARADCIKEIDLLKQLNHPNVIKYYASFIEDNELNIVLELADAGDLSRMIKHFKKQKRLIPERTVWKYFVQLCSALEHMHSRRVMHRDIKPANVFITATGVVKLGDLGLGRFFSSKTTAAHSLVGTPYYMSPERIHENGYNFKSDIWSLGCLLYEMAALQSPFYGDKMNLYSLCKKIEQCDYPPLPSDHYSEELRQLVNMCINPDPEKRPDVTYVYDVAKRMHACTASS

ACVR2B (human) = ACVR2B (human) (UniProt Q13705)
ACVR2B (human), sequence (Q13705 whole entry, looked up): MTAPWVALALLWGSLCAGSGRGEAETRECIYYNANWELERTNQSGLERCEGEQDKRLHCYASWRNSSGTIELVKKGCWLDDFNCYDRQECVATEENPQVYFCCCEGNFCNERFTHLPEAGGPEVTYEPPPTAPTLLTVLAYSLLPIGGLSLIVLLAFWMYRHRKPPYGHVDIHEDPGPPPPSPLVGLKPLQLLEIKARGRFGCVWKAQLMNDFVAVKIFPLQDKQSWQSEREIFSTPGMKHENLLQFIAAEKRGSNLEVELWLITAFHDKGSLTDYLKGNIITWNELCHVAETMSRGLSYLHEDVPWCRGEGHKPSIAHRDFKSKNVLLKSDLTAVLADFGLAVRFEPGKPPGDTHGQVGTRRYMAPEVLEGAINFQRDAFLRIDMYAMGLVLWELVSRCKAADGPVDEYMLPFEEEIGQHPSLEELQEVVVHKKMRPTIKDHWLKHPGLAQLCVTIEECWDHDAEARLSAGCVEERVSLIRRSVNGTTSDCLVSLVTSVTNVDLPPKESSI

PRKCI (human) = PRKCI (human) (UniProt P41743)
CDKL3 (human) = CDKL3 (human) (UniProt Q8IVW4)
RPS6KA4 KD1 (human) = RPS6KA4 KD1 (human) (UniProt O75676)
PRKD1 (human) = PRKD1 (human) (UniProt Q15139)
CDK15 (human) = CDK15 (human) (UniProt Q96Q40)
MST1R (human) = MST1R (human) (UniProt Q04912)
MST1R (human), sequence (Q04912 whole entry, looked up): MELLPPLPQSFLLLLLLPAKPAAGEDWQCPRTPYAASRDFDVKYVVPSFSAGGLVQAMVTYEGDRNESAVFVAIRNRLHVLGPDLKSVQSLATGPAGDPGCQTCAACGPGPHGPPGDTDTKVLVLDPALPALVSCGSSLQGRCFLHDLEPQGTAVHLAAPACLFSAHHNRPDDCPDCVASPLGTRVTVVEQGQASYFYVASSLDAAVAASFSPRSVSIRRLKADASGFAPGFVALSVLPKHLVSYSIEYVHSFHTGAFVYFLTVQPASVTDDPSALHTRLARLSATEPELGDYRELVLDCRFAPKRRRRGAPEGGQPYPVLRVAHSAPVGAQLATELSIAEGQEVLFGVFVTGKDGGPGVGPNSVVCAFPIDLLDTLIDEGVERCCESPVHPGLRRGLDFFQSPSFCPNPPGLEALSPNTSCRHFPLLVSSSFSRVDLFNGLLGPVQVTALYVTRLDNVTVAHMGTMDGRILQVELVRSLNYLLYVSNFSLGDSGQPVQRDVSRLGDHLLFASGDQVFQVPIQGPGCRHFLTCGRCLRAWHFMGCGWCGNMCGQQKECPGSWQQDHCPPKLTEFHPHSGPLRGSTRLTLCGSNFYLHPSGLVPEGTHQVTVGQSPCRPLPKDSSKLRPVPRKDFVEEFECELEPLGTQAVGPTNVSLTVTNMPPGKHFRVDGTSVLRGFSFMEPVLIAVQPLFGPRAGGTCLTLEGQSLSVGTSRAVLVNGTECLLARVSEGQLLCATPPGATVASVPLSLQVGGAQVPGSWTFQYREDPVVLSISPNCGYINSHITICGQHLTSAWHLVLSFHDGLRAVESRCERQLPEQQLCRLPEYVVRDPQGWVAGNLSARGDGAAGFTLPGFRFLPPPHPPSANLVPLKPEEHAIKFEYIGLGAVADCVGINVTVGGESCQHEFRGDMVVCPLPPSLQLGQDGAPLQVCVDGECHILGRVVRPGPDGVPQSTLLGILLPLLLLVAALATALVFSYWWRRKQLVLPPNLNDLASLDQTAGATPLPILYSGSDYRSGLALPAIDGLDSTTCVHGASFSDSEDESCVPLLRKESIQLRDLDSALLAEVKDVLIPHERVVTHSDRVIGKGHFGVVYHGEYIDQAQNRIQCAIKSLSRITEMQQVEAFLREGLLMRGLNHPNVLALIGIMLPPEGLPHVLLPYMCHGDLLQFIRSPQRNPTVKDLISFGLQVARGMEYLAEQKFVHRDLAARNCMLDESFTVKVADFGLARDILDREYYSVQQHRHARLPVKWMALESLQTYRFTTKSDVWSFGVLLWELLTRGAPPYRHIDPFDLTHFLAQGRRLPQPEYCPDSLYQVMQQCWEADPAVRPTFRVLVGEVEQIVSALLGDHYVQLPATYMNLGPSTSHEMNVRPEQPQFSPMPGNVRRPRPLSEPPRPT

CHEK1 (human) = CHEK1 (human) (UniProt O14757)
ICK (human) = ICK (human) (UniProt Q9UPZ9)
GSK3A (human) = GSK3A (human) (UniProt P49840)
ERBB2 (human) = ERBB2 (human) (UniProt P04626)

CNC(=O)c1cc(Oc2ccc(NC(=O)Nc3ccc(Cl)c(C(F)(F)F)c3)cc2)ccn1
per cent of control (PTK2B (human)): 99% | per cent of control (MAPK3 (human)): 95% | per cent of control (DYRK1B (human)): 67% | per cent of control (RPS6KB1 (human)): 46% | per cent of control (VRK2 (human)): 100% | per cent of control [1]: 0% | per cent of control (CSNK1D (human)): 84% | per cent of control (BMP2K (human)): 65% | per cent of control (SRPK2 (human)): 100% | per cent of control [2]: 60% | per cent of control (CDKL1 (human)): 75% | per cent of control (PIP4K2B (human)): 89% | per cent of control (TRPM6 (human)): 100% | per cent of control (STK10 (human)): 0% | per cent of control [3]: 86% | per cent of control (FES (human)): 72% | per cent of control (RPS6KA3 KD1 (human)): 99% | per cent of control (MARK4 (human)): 93% | per cent of control (EPHA1 (human)): 11% | per cent of control (AAK1 (human)): 100% | per cent of control (CPK1 (P.falciparum)): 0.8% | per cent of control (SYK (human)): 77% | per cent of control (PRKX (human)): 98% | per cent of control (EIF2AK1 (human)): 100% | per cent of control (MAPKAPK5 (human)): 100% | per cent of control (MAP3K5 (human)): 100% | per cent of control (HUNK (human)): 90% | per cent of control (ITK (human)): 100% | per cent of control (AXL (human)): 5.4% | per cent of control (PRKG2 (human)): 100% | per cent of control (NEK7 (human)): 100% | per cent of control (ACVR2B (human)): 68% | per cent of control (PRKCI (human)): 100% | per cent of control (CDKL3 (human)): 0.35% | per cent of control (RPS6KA4 KD1 (human)): 81% | per cent of control (PRKD1 (human)): 100% | per cent of control (CDK15 (human)): 7.4% | per cent of control (MST1R (human)): 76% | per cent of control (CHEK1 (human)): 49% | per cent of control (ICK (human)): 100% | per cent of control (GSK3A (human)): 100% | per cent of control (ERBB2 (human)): 100%

CNC(=O)c1cc(Oc2ccc(NC(=O)Nc3ccc(Cl)c(C(F)(F)F)c3)cc2)cc[n+]1[O-]
per cent of control (PTK2B (human)): 91% | per cent of control (MAPK3 (human)): 92% | per cent of control (DYRK1B (human)): 69% | per cent of control (RPS6KB1 (human)): 42% | per cent of control (VRK2 (human)): 100% | per cent of control [1]: 0% | per cent of control (CSNK1D (human)): 91% | per cent of control (BMP2K (human)): 100% | per cent of control (SRPK2 (human)): 73% | per cent of control [2]: 11% | per cent of control (CDKL1 (human)): 45% | per cent of control (PIP4K2B (human)): 88% | per cent of control (TRPM6 (human)): 100% | per cent of control (STK10 (human)): 0% | per cent of control [3]: 16% | per cent of control (FES (human)): 98% | per cent of control (RPS6KA3 KD1 (human)): 52% | per cent of control (MARK4 (human)): 100% | per cent of control (EPHA1 (human)): 18% | per cent of control (AAK1 (human)): 100% | per cent of control (CPK1 (P.falciparum)): 0.15% | per cent of control (SYK (human)): 89% | per cent of control (PRKX (human)): 100% | per cent of control (EIF2AK1 (human)): 100% | per cent of control (MAPKAPK5 (human)): 100% | per cent of control (MAP3K5 (human)): 89% | per cent of control (HUNK (human)): 74% | per cent of control (ITK (human)): 100% | per cent of control (AXL (human)): 1.8% | per cent of control (PRKG2 (human)): 100% | per cent of control (NEK7 (human)): 100% | per cent of control (ACVR2B (human)): 22% | per cent of control (PRKCI (human)): 100% | per cent of control (CDKL3 (human)): 0.3% | per cent of control (RPS6KA4 KD1 (human)): 13% | per cent of control (PRKD1 (human)): 63% | per cent of control (CDK15 (human)): 9.6% | per cent of control (MST1R (human)): 30% | per cent of control (CHEK1 (human)): 79% | per cent of control (ICK (human)): 100% | per cent of control (GSK3A (human)): 100% | per cent of control (ERBB2 (human)): 100%
